Square brackets hold non-standard residues; d marks the D form. Ends that are not written are not given here. Peptide text beside a SMILES is read from it. Nle = CCCC[C@H](N)C(=O)O
Assays:
[1] = system: cells of rat pituitary glands; assay: in vitro GH release assay in cultured rat pituitary cells, hpGRF(1-40)-OH as standard; format: cell-based; conditions: for Comparison %: GH release at equimolar concentrations relative to hpGRF(1-40)-OH standard (100%), incubation 3 to 4 hours, ir GH by radioimmunoassay
Protocol: To determine the effectiveness of the various synthetic peptides to promote the release of growth hormone, in vitro assays are carried out using synthetic hpGRF(1-40)--OH as a standard in side-by-side comparison with equimolar concentrations of the various other analogs and fragments synthesized. Cultures are used which include cells of rat pituitary glands removed some three to five days previously. Cultures which are considered optimal for the secretion of growth hormone are used for the comparative testing, in the general manner described in Vale et al. Endocrinology, 91, 562-572 (1972) and as more particularly described in Vale et al. Endocrinology, (1983), in press. Incubation with the substance to be tested is carried out for 3 to 4 hours, and aliquots of the culture medium are removed and processed to measure their contents in immunoreactive GH(ir GH) by a well-characterized radioimmunoassay.

[2] = system: freely running normal male rats; assay: in vivo GH secretion after injection through an indwelling catheter, FLA-63 pretreated rats; set-up: species or system rat; conditions: blood GH by radioimmunoassay prior to and 5 and 20 minutes after injection; result in words
Protocol: In addition to the in vitro tests for secretion of growth hormone, in vivo experiments are also run by injecting the synthetic peptide through an indwelling catheter into freely running normal male rats. Animals are pretreated with FLA-63, a dopamine hydroxylase inhibitor that suppresses spontaneous GH secretion without affecting the response to exogenous GRF. Blood samples are taken through the same catheter immediately prior to and 5 and 20 minutes after injections; GH levels in blood are measured by radioimmunoassay. […] Dosages between about 40 nanograms and about 25 micrograms per Kg. of body weight are considered to be effective in causing secretion.

## CC[C@H](C)[C@H](NC(=O)[C@H](C)NC(=O)[C@H](CC(=O)O)NC(=O)[C@H](C)NC(=O)[C@@H](N)Cc1c[nH]cn1)C(=O)N[C@@H](Cc1ccccc1)C(=O)N[C@H](C(=O)N[C@@H](CO)C(=O)N[C@@H](CO)C(=O)N[C@@H](Cc1ccc(O)cc1)C(=O)N[C@@H](CCCNC(=N)N)C(=O)N[C@@H](CCCNC(=N)N)C(=O)N[C@H](C(=O)N[C@@H](CC(C)C)C(=O)NCC(=O)N[C@@H](CCC(N)=O)C(=O)N[C@@H](CC(C)C)C(=O)N[C@@H](Cc1ccc(O)cc1)C(=O)N[C@@H](C)C(=O)N[C@@H](CCCNC(=N)N)C(=O)N[C@@H](CCCCN)C(=O)N[C@@H](CC(C)C)C(=O)N[C@@H](CC(C)C)C(=O)N[C@@H](Cc1c[nH]cn1)C(=O)N[C@@H](CCC(=O)O)C(=O)N[C@H](C(=O)N[C@@H](CCSC)C(=O)N[C@@H](CC(N)=O)C(=O)N[C@@H](CCCNC(=N)N)C(=O)N[C@@H](CCC(N)=O)C(=O)N[C@@H](CCC(N)=O)C(=O)NCC(=O)N[C@@H](CCC(=O)O)C(=O)N[C@@H](CCCNC(=N)N)C(=O)N[C@@H](CC(N)=O)C(=O)N[C@@H](CCC(N)=O)C(=O)N[C@@H](CCC(=O)O)C(=O)N[C@@H](CCC(N)=O)C(=O)N[C@@H](CCCNC(=N)N)C(=O)N[C@@H](CO)C(=O)N[C@@H](CCCNC(=N)N)C(=O)N[C@@H](Cc1ccccc1)C(=O)N[C@@H](CC(N)=O)C(=O)O)[C@@H](C)CC)[C@@H](C)CC)[C@@H](C)O [rGRF(1-43)--OH, H--His--Ala--Asp--Ala--Ile--Phe--Thr--Ser--Ser--Tyr--Arg--Arg--Ile--Leu--Gly--Gln--Leu--Tyr--Ala--Arg--Lys--Leu--Leu--His--Glu--Ile--Met--Asn--Arg--Gln--Gln--Gly--Glu--Arg--Asn--Gln--Glu--Gln--Arg--Ser--Arg--Phe--Asn--OH]
[1]; in vitro GH secretion, cultured rat pituitary cells
  maximum effective concentration: 1 nM
[1]; result in words
  release of GH from cultured pituitary cells: releases GH from cultured pituitary cells
[2]
  stimulation of the secretion of pituitary GH in vivo: powerful stimulators of the secretion of pituitary GH

## npGRF(1-40)-OH: synthetic hpGRF(1-40)--OH used as a standard in the in vitro assays (YADAIFTNSYRKVLGQLSARKLLQDIMSRQQGESNQERGA-OH; UniProt P01286 32-71, looked up, fragment) [reference compound]
[1]
  Comparison %: 100%

## CCCC[C@H](NC(=O)[C@@H](NC(=O)[C@H](CC(=O)O)NC(=O)[C@H](CCC(N)=O)NC(=O)[C@H](CC(C)C)NC(=O)[C@H](CC(C)C)NC(=O)[C@H](CCCCN)NC(=O)[C@H](CCCNC(=N)N)NC(=O)[C@H](C)NC(=O)[C@H](CO)NC(=O)[C@H](CC(C)C)NC(=O)[C@H](CCC(N)=O)NC(=O)CNC(=O)[C@H](CC(C)C)NC(=O)[C@@H](NC(=O)[C@H](CCCCN)NC(=O)[C@H](CCCNC(=N)N)NC(=O)[C@H](Cc1ccc(O)cc1)NC(=O)[C@H](CO)NC(=O)[C@H](CC(N)=O)NC(=O)[C@@H](NC(=O)[C@H](Cc1ccccc1)NC(=O)[C@@H](NC(=O)[C@H](C)NC(=O)[C@H](CC(=O)O)NC(=O)[C@H](C)NC(=O)[C@@H](N)Cc1ccc(O)cc1)[C@@H](C)CC)[C@@H](C)O)C(C)C)[C@@H](C)CC)C(=O)N[C@@H](CC(N)=O)C(=O)N[C@@H](CCCNC(=N)N)C(N)=O [[Nle^27,Asn^28]--hGRF(1-29)-NH2, H--Tyr--Ala--Asp--Ala--Ile--Phe--Thr--Asn--Ser--Tyr--Arg--Lys--Val--Leu--Gly--Gln--Leu--Ser--Ala--Arg--Lys--Leu--Leu--Gln--Asp--Ile--Nle--Asn--Arg--NH2] (H-YADAIFTNSYRKVLGQLSARKLLQDI[Nle]NR-NH2)
[1]
  Comparison %: 520%

Source: patent publication US4628043A, “Hypothalamic GRF agonists” (The Salk Institute for Biological Studies, priority 1985, dated 1986)
